Test system: heart (myocardial damage) of Crl:CD-1 (ICR) BR female mice
Experiment: cardiotoxicity in the Bertazzoli mouse model
Assay type: in vivo
Conditions: intravenous, expected
Procedure: Animals/group: 15 Crl:CD-1 (ICR) BR female mice, about 4 weeks old at the start of treatment, will be used.
Test and control articles and formulations: Epi and rmuAb will be dissolved in normal saline (saline) and distilled water for injection (water), respectively, at the requested concentrations; dex will be dissolved in M/6 sodium lactate at the requested concentration; control animals will receive the above vehicles alone.
Dose levels and justification: The doses of 5 mg/kg/day for epi and 50 mg/kg/day for dex (epi/dex ratio: 1:10) are selected on the basis of the results of previous cardiotoxicity studies in mice. […] The two doses of rmuAb will be decided on the basis of the results of two preliminary studies performed to assess its toxicity and cardiotoxic potential in the above strain of mice.
Administration route: intravenous, via a tail vein, for epi, dex and rmuAb.
Study duration and treatment schedule: Twice a week at weeks 1, 2, 5, 6, and 7 for epi and dex; twice a week for 7 weeks for rmuAb. Dex will be given 30 minutes before epi. […]
Clinical observations and post-mortem examinations: Mortality, clinical signs and general condition will be recorded daily and body weight weekly. […] Cardiomyopathy will be evaluated by scoring the severity and extent of the myocardial lesions according to a qualitative/quantitative score. […]

| Structure (SMILES) | effect on myocardial damage produced by epi (50 mg/kg/day dex, 30 minutes before epi) | cardiotoxicity induced (5 mg/kg/day epi) |
| --- | --- | --- |
| C[C@@H](CN1CC(=O)NC(=O)C1)N1CC(=O)NC(=O)C1 [dex, dexrazoxane] | significantly reduce the myocardial damage |  |
| COc1cccc2c1C(=O)c1c(O)c3c(c(O)c1C2=O)C[C@@](O)(C(=O)CO)C[C@@H]3O[C@H]1C[C@H](N)[C@@H](O)[C@H](C)O1 [epi, epirubicin] |  | moderate/marked cardiotoxicity |

Reference: patent US20030096823A1, “Method for the treatment of cardiotoxicity induced by antitumor compounds” (priority 2001, published 2003)
